{"source": "BindingDB's records for PubMed 31931340", "about": "(n/a, 2020)", "target": "PIK3CA", "assay": "Inhibition of human P13Kalpha", "data": [{"smiles": "CN(c1nc(-c2cnc(N)nc2)nc(N2CCOCC2)n1)C1CCN(C(=O)c2ccccc2)CC1", "values": [{"measurement": "IC50", "result": 0.015, "unit": "µM"}]}]}
